Data reported in patent US10568961B2, “Photosensitising composition and its uses” (DENTSPLY SIRONA Inc., priority 2008, dated 2020).

Experiments:
Assay type in all cases: cell-based, Enterococcus faecalis
[1] = test system: E. faecalis bacteria (ATCC 29212) biofilm; assay: Disinfection of four-week old biofilm in root canal (CFU from dentine shavings)
Source text: The institutional review board of the National University of Singapore approved the collection and use of extracted human teeth for this experiment. Thirty single rooted teeth maintained in Phosphate Buffer Saline (PBS) with similar shape and sizes were selected for the following experiment. The crown (at the level of Cemento-Enamel Junction) and the […] of the root were removed using a microslice machine (Metal Research, England) to obtain standard sized specimens of 8 mm length. The prepared tooth specimens were selected for the experiments after inspecting for any signs of cracks or damages on the cementum. The remnants of the pulp tissue were removed from the root canal using a barbed broach and the tooth specimens were autoclaved before further experiments.
A single colony of E. faecalis bacteria (ATCC 29212) culture was incubated in All Culture Broth (AC Broth) for 8 hours. The optical density of the culture was adjusted to 1 at 600 nm that corresponds to 10^9 cells/mL. The sterilized tooth specimens were placed in the AC broth (50 mL) with the bacterial culture and incubated in an orbital incubator (120 rpm) at 37° C. under aerobic conditions. The culture medium was replenished once in every two days to remove dead cells and to ensure proper growth of bacteria. After four weeks of incubation, the tooth specimens were subjected to the following experiment.
This experiment was conducted to observe the efficiency of different antimicrobial treatments on a matured root canal biofilm. After the specific incubation period, the tooth specimens were removed and washed with sterile PBS. The specimens were randomly divided into five experimental groups and treated accordingly.
Group 2 (conventional PDT): The tooth specimens in this group were subjected to conventional PDT. The root canals of the specimens were filled with 100 μM of MB (photosensitization) for 20 minutes and was irradiated immediately with 660 nm laser light for 20 minutes to attain a total energy level of 36 J (n=6). […]

[2] = test system: E. faecalis biofilms grown on a glass cover slip; assay: Structural damage to biofilm by PDT in vitro (CLSM, live/dead stain); details: seven-day biofilm, 664 nm, 31.84 J/cm^2
Procedure: The structural damage to biofilm caused by PDT was assessed on E. faecalis biofilms grown on a glass cover slip that was fixed covering a grove (6 mm diameter) made at the bottom part of a petri dish. E. faecalis cell suspension (100 μL containing ˜10^7 cells/mL) prepared from overnight grown culture in All-Culture (AC) media was added onto the saliva-coated glass-cover slip. Six petri dishes containing the biofilm were tested in each group. After seven days of incubation with periodical replacement of growth media, the biofilm was washed and photosensitised with either 100 μM MB in water or PF4 (MB in an emulsion produced by mixing perfluorodecahydro naphthalene:H2O2:triton-X100 in the ratio 75:24.5:0.5). These biofilms were incubated in the dark for ten minutes, after which the excess of the photosensitising formulation was partially replaced with perfluorodecahydro naphthalene and exposed to irradiation using 664 nm diode laser with a total fluence of 31.84 J/cm^2.
After the PDT, the washed biofilms were stained using 20 μL PBS containing 2 μL of live/dead stain (Molecular Probes, Eugene, Oreg., USA) and were observed using confocal laser scanning microscopy (CLSM). […] The optical sections of the biofilm structure were recorded and analyzed by using FluoView software (Olympus Corporation, Tokyo, Japan).

[3] = test system: E. faecalis biofilm in root canals; assay: PDT of endodontic bacterial biofilm ex vivo (ten-week biofilm in tooth specimens)
Procedure: Thirty tooth blocks were prepared by removing the crown at the level of cementoenamel junction and the apical third of the root canal (˜8 mm long). All specimens were instrumented using K-files with sizes from #20 to #40. The smear layer formed during mechanical shaping was removed by rinsing the root canal with sodium hypochlorite (1%) followed by EDTA (100 mM). The prepared single-rooted tooth specimens were incubated with 50 mL of AC media inoculated with a single colony of E. faecalis as described elsewhere (George S and Kishen A, J Biomed Opt, 2000). Incubation was carried out for ten weeks at 37° C. with periodical replacement of growth media under constant shaking (120 rpm). After the incubation period, the tooth specimens were randomly divided into five groups and were treated as follows:
Group 2—Root canal-treatment (RCT) group (n=5): root canals were subjected to conventional cleaning and shaping procedures performed by using a sequence of endodontic file sizes (#25 to #50 K-files; Maillefer Instruments SA, Switzerland). The root canals were repeatedly irrigated with 5 mL of 5.2% sodium hypochlorite before and after instrumentation step using a 28-G needle and a syringe. Ethylenediaminetetraacetic acid (EDTA) 17% was also used at the end of instrumentation to remove the smear layer. Group 3—Conventional PDT group (n=5): root canals were subjected to minimal instrumentation (using #25 K file). These root canals were filled with 100 μM MB in water and were irradiated with 664 nm laser light with a total energy of 31.84 J/cm^2. Group 4—PF4 group (n=5): root canals were subjected to minimal instrumentation (using #25 K file) followed by PDT using PF4. Here, the root canals were filled with PF4 and were left in the dark for 10 minutes. After the sensitization period, the excess of the photosensitizing formulation was partially replaced with perfluorodecahydro naphthalene and the root canals were irradiated with 664 nm diode laser with a total fluence of 31.84 J/cm^2. Group 5—RCT+PF4 group (n=5): root canals were subjected to the conventional root canal disinfection procedure similar to the conventional RCT group (i.e. Group 2) followed by PDT using PF4.
After the specified treatment, the tooth-specimens were split open mesiodistally, and dentine shavings were collected using a round bur of 1 mm diameter held perpendicular to the root canal surface. The dentine shavings were collected at midpoint (coronoapically) from the two halves (buccal and lingual) of each root (n=12). […] Colony-forming units (CFU) were enumerated on the subsequent day, and the mean value of log10 number of bacteria and the standard error were calculated. […] The numbers of tubes positive for bacterial cells were counted against the total number of tubes.

[4] = after 4 hours of enrichment, compared with the control group

**Q.** `CN(C)c1ccc2nc3ccc(=[N+](C)C)cc-3sc2c1` [MB in water, Methylene blue] was tested. Which “inactivation of bacteria” value [1] did it give?
**A.** failed to show significant bacterial reduction

**Q.** And the “difference in bacterial count” value ([1]; compared to control group)?
**A.** 0.38 log10

**Q.** What about the bacterial kill ([1]; corresponds to log10 difference vs control group) of the same compound?
**A.** 59%

**Q.** What about the “viability of biofilm bacteria after PDT” value ([2]; live/dead stain) of the same compound?
**A.** increased the proportion of dead cells

**Q.** And the “biofilm thickness after PDT” value ([2]; untreated biofilm 17 μm)?
**A.** 12 μm

**Q.** And the “difference in the mean viable count” value [3, 4]?
**A.** 1.5 log10

**Q.** What about the “reduction in viable bacteria” value [3, 4] of the same compound?
**A.** 96.89%

**Q.** What about the “% of tooth specimens positive for bacteria after 24 hours of enrichment” value ([3]; ten-week biofilm, dentine shavings) of the same compound?
**A.** 100%

**Q.** What about the “CFU (log10) after 4 hours of enrichments (±SD)” value ([3]; ten-week biofilm, dentine shavings, control group 7.147) of the same compound?
**A.** 5.639 (±0.066) log10
